Source: patent US11096390B2, “Method of controlling weeds in a cultivation area of field corn” (SUMITOMO CHEMICAL COMPANY, LIMITED, priority 2019, dated 2021)

Legend:
[1] = test system: palmer amaranth, waterhemp, kochia, common ragweed and marestail; assay: Example 1 pot test, spray two days after sowing: herbicidal effects on weeds; assay type: in vivo; details: 25 or 50 g per hectare; applied two days after sowing; 21 days after the treatment
Description: (§1) The evaluation of the herbicidal effect and crop injury is classified into 0 to 100, where the numeral “0” indicates no or little difference in the state of germination or growth of weeds or corn under test at the time of examination as comparison with untreated weeds or corn, respectively and the numeral “100” indicates the complete death of weeds or corn under test or the complete inhibition of their germination or growth of weeds or corn under test.
(§2) A pot is filled with a soil, and then field corn, popcorn, sweet corn, waxy corn, palmer amaranth, waterhemp, kochia, common ragweed and marestail are sown thereto. Two days later, trifludimoxazin spray liquid (prepared by diluting trifludimoxazin formulation (an aqueous suspension concentrate containing 500 g/L of trifludimoxazin) with water) is uniformly applied onto the pot using sprayer at the amount of 200 L per hectare so that the application rate of trifludimoxazin may be 25 or 50 g per hectare. 21 days after the treatment, herbicidal effects and injuries on various corns are investigated.

kochia = assay: Pot test, soil spray after sowing: herbicidal effect on kochia; assay type: in vivo, Kochia scoparia
Description: as §1
(§3) Three varieties of field corn, two varieties of popcorn, two varieties of sweet corn, two varieties of waxy corn, palmer amaranth, kochia and large crabgrass were sown to a pot filled with a soil. On the next day, a trifludimoxazin spray liquid (prepared by diluting an emuslfiable concentrate of trifludimoxazin with water) was uniformly sprayed onto the pot at the amount of 200 L per hectare so that the application rate of trifludimoxazin might be 50 g per hectare. 12 days after treatment, herbicidal effects on weeds and injury on corns were investigated. As a result, the herbicidal effect on each of the three weeds was 100.
(§4) Four varieties of field corn, two varieties of popcorn, two varieties of sweet corn, palmer amaranth, kochia and large crabgrass were sown to a pot filled with a soil. […]

popcorn = assay: Pot test, soil spray after sowing: crop injury on popcorn; assay type: in vivo, Zea mays var. everta
Description: as §1, §3
as §3, with “Four” for “Three”, “sweet” for “sweet corn, two varieties of waxy”, “25” for “50”, “13” for “12”

[2] = test system: field corn, popcorn, sweet corn, waxy corn; assay: Example 1 pot test, spray two days after sowing: injuries on various corns; assay type: in vivo, Zea mays; details: 25 or 50 g per hectare; applied two days after sowing; 21 days after the treatment
Description: as §1, §2

field corn = assay: Pot test, soil spray after sowing: crop injury on field corn; assay type: in vivo, Zea mays var. indentata and/or Zea mays var. indurata
Description: as §1, §3
as §3, with “Four” for “Three”, “sweet” for “sweet corn, two varieties of waxy”, “25” for “50”, “13” for “12”

palmer amaranth = assay: Pot test, soil spray after sowing: herbicidal effect on palmer amaranth; assay type: in vivo, Amaranthus palmeri
Description: as §1, §3, §4

waxy corn = assay: Pot test, soil spray after sowing: crop injury on waxy corn; assay type: in vivo, Zea mays var. ceratina; details: 50 g/ha, 12 days after treatment
Description: as §1, §3

[3] = test system: field corn, popcorn, sweet corn, and waxy corn; assay: Example 2 pot test, spray the day before sowing corns: injuries on various corns; assay type: in vivo, Zea mays; details: 25 or 50 g per hectare; applied the day before sowing corns; 21 days after sowing corns
Description: as §1
as §2, with “Palmer” for “field corn, popcorn, sweet corn, waxy corn, palmer”, “On the same day,” for “Two days later,”, “hectare. On the next day, field corn, popcorn, sweet corn, and waxy corn are sown.” for “hectare.”, “sowing corns,” for “the treatment,”

sweet corn = assay: Pot test, soil spray after sowing: crop injury on sweet corn; assay type: in vivo, Zea mays var. saccharata
Description: as §1, §3
as §3, with “Four” for “Three”, “sweet” for “sweet corn, two varieties of waxy”, “25” for “50”, “13” for “12”

[4] = test system: palmer amaranth, waterhemp, kochia, common ragweed and marestail; assay: Example 2 pot test, spray the day before sowing corns: herbicidal effects on weeds; assay type: in vivo; details: 25 or 50 g per hectare; applied on day of weed sowing, corns sown next day; 21 days after sowing corns
Description: as §1
as §2, with “Palmer” for “field corn, popcorn, sweet corn, waxy corn, palmer”, “On the same day,” for “Two days later,”, “hectare. On the next day, field corn, popcorn, sweet corn, and waxy corn are sown.” for “hectare.”, “sowing corns,” for “the treatment,”

large crabgrass = assay: Pot test, soil spray after sowing: herbicidal effect on large crabgrass; assay type: in vivo, Digitaria sanguinalis
Description: as §1, §3, §4

[5] = 25 g per hectare, 13 days after treatment
[6] = 50 g per hectare, 12 days after treatment

C#CCN1C(=O)C(F)(F)Oc2cc(F)c(-n3c(=O)n(C)c(=S)n(C)c3=O)cc21 [trifludimoxazin]
herbicidal effects on all weeds [1]: High herbicidal effects | herbicidal effect (0 to 100) (kochia; [5]): 100 | herbicidal effect (0 to 100) (kochia; [6]): 100 | Injury score on corn (0 to 100) (popcorn; Popcorn Maru-pop, 25 g/ha, 13 days after treatment): 20 | Injury score on corn (0 to 100) (popcorn; Popcorn Maru-pop, 50 g/ha, 12 days after treatment): 50 | Injury score on corn (0 to 100) (popcorn; Popcorn Yuki-pop, 25 g/ha, 13 days after treatment): 20 | Injury score on corn (0 to 100) (popcorn; Popcorn Yuki-pop, 50 g/ha, 12 days after treatment): 40 | injury on field corn compared with popcorn, sweet corn and waxy corn [2]: less than those on popcorn, sweet corn and waxy corn | Injury score on corn (0 to 100) (field corn; Field corn DKC5632, 25 g/ha, 13 days after treatment): 0 | Injury score on corn (0 to 100) (field corn; Field corn DKC5632, 50 g/ha, 12 days after treatment): 10 | Injury score on corn (0 to 100) (field corn; Field corn Koshu, 25 g/ha, 13 days after treatment): 0 | Injury score on corn (0 to 100) (field corn; Field corn Koshu, 50 g/ha, 12 days after treatment): 5 | Injury score on corn (0 to 100) (field corn; Field corn MAS40F, 25 g/ha, 13 days after treatment): 5 | Injury score on corn (0 to 100) (field corn; Field corn Pioneer 2088, 25 g/ha, 13 days after treatment): 0 | Injury score on corn (0 to 100) (field corn; Field corn Pioneer 2088, 50 g/ha, 12 days after treatment): 5 | herbicidal effect (0 to 100) (palmer amaranth; [5]): 100 | herbicidal effect (0 to 100) (palmer amaranth; [6]): 100 | Injury score on corn (0 to 100) (waxy corn; Waxy corn Ki-mochi): 30 | Injury score on corn (0 to 100) (waxy corn; Waxy corn Shiro-mochi): 40 | injury on field corn compared with popcorn, sweet corn and waxy corn [3]: less than those on popcorn, sweet corn and waxy corn | Injury score on corn (0 to 100) (sweet corn; Sweet corn Ohisama, 25 g/ha, 13 days after treatment): 20 | Injury score on corn (0 to 100) (sweet corn; Sweet corn Ohisama, 50 g/ha, 12 days after treatment): 40 | Injury score on corn (0 to 100) (sweet corn; Sweet corn Rancher 82, 25 g/ha, 13 days after treatment): 30 | Injury score on corn (0 to 100) (sweet corn; Sweet corn Rancher 82, 50 g/ha, 12 days after treatment): 30 | herbicidal effects on all weeds [4]: High herbicidal effects | herbicidal effect (0 to 100) (large crabgrass; [5]): 100 | herbicidal effect (0 to 100) (large crabgrass; [6]): 100
